Reference: ChEMBL document CHEMBL5465560, “Selectivity Literature for EUbOPEN Chemogenomic Library” (2024)

Tests used:
[1] = target: Mitogen-activated protein kinase 1 (Homo sapiens, UniProt P28482); assay: Selectivity interaction (KinomeScan (DiscoverX)) EUB0000595a MAPK1; settings: at 10 µM
[2] = target: Serine/threonine-protein kinase 38-like (Homo sapiens) (UniProt Q9Y2H1); assay: Selectivity interaction (KinomeScan (DiscoverX)) EUB0000045b STK38L
[3] = target: Phosphatidylinositol 4,5-bisphosphate 3-kinase catalytic subunit gamma isoform (Homo sapiens) (UniProt P48736); assay: Selectivity interaction (KinomeScan (DiscoverX)) EUB0000045b PIK3CG
Phosphatidylinositol 4,5-bisphosphate 3-kinase catalytic subunit gamma isoform (Homo sapiens), sequence (P48736 whole entry, looked up, canonical isoform): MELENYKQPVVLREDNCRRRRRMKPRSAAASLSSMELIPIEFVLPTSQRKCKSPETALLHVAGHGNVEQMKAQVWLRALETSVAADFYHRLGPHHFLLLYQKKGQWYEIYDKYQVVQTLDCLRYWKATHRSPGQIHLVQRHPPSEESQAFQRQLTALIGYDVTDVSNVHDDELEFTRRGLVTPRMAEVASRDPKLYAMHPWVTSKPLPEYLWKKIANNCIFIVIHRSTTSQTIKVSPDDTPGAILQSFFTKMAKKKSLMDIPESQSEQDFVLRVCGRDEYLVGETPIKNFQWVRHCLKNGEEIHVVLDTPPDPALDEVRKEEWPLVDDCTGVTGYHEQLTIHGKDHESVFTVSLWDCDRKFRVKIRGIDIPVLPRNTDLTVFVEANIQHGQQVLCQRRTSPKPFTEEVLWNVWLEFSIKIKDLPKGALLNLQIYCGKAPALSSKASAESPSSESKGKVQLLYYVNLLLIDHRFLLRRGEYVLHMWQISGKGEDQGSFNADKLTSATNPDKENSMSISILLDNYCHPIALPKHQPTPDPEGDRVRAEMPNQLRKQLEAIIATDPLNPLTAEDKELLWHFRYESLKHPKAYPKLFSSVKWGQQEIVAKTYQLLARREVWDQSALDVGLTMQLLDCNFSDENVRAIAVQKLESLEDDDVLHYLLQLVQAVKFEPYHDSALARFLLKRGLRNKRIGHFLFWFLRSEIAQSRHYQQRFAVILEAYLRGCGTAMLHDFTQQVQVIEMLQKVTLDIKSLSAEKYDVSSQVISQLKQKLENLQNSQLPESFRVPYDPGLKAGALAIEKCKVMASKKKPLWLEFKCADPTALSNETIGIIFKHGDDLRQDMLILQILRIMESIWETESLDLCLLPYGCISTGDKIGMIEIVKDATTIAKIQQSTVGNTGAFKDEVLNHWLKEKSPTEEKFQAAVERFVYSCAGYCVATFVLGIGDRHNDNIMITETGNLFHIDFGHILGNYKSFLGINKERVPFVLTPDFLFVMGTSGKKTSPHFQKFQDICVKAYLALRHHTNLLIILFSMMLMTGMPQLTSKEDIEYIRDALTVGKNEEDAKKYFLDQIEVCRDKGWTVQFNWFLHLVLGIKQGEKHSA

[4] = target: Angiopoietin-1 receptor (Homo sapiens) (UniProt Q02763); assay: Selectivity interaction (KinomeScan (DiscoverX)) EUB0000695a TEK; settings: at 100 nM
Angiopoietin-1 receptor (Homo sapiens), sequence (Q02763 whole entry): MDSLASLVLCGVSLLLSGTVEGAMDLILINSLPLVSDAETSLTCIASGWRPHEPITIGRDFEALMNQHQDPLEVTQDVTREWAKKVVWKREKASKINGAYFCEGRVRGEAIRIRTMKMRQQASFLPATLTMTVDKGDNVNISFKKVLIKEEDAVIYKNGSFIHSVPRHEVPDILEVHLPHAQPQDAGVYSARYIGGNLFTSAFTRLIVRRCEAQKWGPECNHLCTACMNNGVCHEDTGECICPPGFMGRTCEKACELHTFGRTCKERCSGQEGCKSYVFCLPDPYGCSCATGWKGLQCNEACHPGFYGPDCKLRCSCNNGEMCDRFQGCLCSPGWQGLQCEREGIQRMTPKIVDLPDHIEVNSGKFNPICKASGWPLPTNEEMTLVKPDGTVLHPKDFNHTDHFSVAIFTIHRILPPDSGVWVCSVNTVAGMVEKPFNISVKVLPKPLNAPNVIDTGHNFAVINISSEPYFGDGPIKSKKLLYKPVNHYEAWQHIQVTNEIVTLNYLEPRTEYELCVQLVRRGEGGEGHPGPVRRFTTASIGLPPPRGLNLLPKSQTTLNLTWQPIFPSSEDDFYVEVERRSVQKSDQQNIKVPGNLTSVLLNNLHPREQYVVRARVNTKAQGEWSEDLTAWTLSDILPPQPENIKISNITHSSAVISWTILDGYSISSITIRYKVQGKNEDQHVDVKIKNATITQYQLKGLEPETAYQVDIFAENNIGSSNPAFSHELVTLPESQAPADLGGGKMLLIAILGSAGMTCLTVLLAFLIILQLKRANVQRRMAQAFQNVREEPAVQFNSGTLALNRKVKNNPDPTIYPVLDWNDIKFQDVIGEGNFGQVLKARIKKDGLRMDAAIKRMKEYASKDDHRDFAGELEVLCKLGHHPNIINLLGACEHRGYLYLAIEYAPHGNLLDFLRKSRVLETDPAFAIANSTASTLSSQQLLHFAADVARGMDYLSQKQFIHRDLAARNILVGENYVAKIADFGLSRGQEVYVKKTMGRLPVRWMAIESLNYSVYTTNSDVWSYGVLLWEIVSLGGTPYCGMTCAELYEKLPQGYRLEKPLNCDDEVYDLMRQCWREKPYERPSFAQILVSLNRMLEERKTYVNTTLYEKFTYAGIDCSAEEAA

[5] = target: T1, Serine/threonine-protein kinase PLK4 (Homo sapiens) (UniProt O00444); assay: Selectivity interaction (KinomeScan (DiscoverX)) EUB0001079a PLK4; settings: at 1 µM
T1 sequence (whole entry): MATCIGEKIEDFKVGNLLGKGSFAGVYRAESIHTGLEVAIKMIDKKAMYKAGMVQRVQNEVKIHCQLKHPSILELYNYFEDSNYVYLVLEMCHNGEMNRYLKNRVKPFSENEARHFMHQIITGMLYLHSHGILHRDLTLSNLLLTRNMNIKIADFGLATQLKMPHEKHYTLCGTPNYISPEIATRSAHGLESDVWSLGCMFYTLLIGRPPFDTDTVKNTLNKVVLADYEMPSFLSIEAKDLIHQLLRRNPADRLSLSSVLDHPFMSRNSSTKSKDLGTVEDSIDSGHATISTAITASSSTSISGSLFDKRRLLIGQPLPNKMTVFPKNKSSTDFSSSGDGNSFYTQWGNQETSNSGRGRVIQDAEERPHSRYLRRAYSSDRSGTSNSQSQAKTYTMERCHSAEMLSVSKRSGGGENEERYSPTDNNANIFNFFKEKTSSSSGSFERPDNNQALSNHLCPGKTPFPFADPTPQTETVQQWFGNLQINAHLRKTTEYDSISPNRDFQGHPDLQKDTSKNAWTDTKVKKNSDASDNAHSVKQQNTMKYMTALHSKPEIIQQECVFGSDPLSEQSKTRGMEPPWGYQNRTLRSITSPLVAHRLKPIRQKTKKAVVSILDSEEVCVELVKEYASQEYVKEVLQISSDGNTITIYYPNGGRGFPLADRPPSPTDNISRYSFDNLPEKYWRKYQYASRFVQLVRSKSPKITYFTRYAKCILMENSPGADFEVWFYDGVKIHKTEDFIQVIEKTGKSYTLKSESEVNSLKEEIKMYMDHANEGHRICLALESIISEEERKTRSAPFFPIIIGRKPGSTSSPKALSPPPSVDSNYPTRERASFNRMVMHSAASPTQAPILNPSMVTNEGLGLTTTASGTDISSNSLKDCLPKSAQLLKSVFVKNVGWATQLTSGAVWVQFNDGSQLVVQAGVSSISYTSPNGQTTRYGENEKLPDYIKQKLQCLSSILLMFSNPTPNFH

[6] = target: Receptor tyrosine-protein kinase erbB-3 (Homo sapiens) (UniProt P21860); settings: at 10 µM
[7] = target: T2, Dual specificity tyrosine-phosphorylation-regulated kinase 2 (Homo sapiens) (UniProt Q92630); assay: Selectivity interaction (Upstate Kinase Profiler service (Millipore)) EUB0000056c DYRK2; settings: at 1 µM
T2 sequence (whole entry): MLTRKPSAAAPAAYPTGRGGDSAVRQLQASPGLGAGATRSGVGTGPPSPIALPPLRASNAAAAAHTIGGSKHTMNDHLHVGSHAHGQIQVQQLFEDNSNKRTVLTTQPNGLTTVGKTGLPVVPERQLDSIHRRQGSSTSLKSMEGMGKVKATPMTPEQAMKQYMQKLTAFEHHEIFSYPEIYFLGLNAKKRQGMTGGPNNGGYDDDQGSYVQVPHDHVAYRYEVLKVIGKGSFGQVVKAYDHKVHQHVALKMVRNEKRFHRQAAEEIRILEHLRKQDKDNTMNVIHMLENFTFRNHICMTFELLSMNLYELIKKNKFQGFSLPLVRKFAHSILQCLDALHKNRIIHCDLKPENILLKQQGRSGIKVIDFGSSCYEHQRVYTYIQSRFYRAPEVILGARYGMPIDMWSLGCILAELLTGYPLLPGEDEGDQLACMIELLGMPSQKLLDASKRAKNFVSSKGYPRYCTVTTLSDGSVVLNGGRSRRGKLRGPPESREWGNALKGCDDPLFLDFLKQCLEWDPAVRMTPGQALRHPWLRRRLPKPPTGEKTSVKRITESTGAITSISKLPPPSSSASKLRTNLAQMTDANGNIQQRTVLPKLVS

[8] = target: Mitogen-activated protein kinase kinase kinase 4 (Homo sapiens) (UniProt Q9Y6R4); assay: Selectivity interaction (ActivX KiNativ screen (ex vivo kinase selectivity in human PBMCs)) EUB0001619a MAP3K4; assay type: cell-based; settings: PBMC, at 1 µM
[9] = target: Casein kinase II subunit alpha' (Homo sapiens) (UniProt P19784); assay: Selectivity interaction (SelectScreen profiling (Invitrogen)) EUB0000607a CSNK2A2; settings: at 2 µM
Casein kinase II subunit alpha' (Homo sapiens), sequence (P19784 whole entry, looked up): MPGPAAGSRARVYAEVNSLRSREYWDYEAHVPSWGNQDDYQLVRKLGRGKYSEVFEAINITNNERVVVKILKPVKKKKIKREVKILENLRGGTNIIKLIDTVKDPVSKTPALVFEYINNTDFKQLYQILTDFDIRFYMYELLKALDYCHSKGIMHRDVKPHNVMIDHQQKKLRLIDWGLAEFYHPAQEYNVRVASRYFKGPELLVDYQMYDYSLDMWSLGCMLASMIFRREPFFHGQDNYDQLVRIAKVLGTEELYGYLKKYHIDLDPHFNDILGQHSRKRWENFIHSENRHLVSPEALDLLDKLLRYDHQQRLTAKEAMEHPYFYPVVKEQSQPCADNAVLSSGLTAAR

[10] = target: T3, Protein kinase C iota type (Homo sapiens) (UniProt P41743); assay: Selectivity interaction (KinomeScan (DiscoverX)) EUB0000618a PRKCI; settings: at 10 µM
T3 sequence (whole entry): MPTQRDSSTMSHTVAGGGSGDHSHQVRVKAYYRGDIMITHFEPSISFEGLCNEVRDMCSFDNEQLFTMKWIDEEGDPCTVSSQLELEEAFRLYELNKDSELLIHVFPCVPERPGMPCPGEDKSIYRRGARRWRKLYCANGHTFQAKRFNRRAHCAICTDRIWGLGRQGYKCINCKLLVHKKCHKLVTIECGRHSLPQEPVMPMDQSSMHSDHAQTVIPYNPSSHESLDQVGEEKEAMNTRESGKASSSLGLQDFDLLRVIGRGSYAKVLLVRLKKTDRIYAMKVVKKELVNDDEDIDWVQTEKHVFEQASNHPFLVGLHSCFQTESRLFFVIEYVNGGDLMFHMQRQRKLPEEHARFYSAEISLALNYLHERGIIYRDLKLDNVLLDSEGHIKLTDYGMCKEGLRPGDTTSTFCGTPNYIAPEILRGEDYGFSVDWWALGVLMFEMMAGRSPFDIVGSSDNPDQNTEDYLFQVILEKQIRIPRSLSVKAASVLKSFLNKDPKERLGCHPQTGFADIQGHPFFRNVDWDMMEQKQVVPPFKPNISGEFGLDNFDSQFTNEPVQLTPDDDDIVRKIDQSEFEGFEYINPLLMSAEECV

[11] = target: Ribosomal protein S6 kinase alpha-1 (Homo sapiens, UniProt Q15418); assay: Selectivity interaction (ActivX KiNativ screen (kinase selectivity in THP-1 cell lysates)) EUB0000639a RPS6KA1; assay type: subcellular; settings: lysate, at 0.2 µM
Ribosomal protein S6 kinase alpha-1, sequence (Q15418 whole entry): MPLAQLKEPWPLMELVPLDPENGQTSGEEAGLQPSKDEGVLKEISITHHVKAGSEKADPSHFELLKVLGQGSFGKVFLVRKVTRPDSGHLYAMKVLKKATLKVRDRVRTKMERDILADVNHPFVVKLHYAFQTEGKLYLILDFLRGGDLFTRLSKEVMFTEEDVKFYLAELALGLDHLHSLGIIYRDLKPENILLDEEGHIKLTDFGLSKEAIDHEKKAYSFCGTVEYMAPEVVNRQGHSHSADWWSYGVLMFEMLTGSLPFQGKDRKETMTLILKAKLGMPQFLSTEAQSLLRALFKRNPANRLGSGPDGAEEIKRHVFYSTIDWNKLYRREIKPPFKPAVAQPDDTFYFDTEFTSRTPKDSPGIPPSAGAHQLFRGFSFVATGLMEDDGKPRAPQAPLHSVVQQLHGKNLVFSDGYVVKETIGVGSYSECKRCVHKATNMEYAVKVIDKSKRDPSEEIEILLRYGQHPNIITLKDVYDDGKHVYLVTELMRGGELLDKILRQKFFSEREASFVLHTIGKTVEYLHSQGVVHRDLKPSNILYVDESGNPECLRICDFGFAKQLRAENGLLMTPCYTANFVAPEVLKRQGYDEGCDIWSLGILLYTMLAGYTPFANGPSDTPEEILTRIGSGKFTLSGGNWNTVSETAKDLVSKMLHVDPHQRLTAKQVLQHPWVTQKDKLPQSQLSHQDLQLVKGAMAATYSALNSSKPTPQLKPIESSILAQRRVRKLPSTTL

[12] = target: Serine/threonine-protein kinase SIK2 (Homo sapiens) (UniProt Q9H0K1); assay: Selectivity interaction (Kinase panel (Invitrogen)) EUB0000639a SIK2; settings: at 200 nM
Serine/threonine-protein kinase SIK2 (Homo sapiens), sequence (Q9H0K1 whole entry, looked up): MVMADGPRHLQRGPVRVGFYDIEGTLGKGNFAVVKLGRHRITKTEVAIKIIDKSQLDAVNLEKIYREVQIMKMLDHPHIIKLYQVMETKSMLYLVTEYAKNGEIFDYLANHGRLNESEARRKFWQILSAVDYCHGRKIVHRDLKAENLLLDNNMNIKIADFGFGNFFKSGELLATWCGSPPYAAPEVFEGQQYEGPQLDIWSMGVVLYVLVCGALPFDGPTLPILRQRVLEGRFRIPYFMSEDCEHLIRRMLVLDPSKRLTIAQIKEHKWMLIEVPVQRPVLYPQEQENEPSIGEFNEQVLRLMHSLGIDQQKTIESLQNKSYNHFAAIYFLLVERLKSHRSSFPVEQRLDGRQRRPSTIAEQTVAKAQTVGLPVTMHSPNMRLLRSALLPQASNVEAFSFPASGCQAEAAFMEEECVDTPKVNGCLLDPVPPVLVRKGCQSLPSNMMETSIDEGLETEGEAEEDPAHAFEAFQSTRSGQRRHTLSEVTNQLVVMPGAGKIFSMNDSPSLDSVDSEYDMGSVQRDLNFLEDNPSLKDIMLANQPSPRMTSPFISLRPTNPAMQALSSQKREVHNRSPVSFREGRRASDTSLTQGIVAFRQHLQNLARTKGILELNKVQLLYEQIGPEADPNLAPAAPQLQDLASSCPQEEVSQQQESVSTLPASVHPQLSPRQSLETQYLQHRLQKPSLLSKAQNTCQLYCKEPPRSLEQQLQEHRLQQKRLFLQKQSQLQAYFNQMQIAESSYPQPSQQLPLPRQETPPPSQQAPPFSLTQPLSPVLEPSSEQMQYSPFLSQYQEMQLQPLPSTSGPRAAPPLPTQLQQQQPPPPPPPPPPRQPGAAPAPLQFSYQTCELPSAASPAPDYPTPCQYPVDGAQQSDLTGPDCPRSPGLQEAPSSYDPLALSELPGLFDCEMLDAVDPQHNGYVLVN

Serine/threonine-protein kinase 38-like (Homo sapiens), sequence (Q9Y2H1 2-464 limits assumed): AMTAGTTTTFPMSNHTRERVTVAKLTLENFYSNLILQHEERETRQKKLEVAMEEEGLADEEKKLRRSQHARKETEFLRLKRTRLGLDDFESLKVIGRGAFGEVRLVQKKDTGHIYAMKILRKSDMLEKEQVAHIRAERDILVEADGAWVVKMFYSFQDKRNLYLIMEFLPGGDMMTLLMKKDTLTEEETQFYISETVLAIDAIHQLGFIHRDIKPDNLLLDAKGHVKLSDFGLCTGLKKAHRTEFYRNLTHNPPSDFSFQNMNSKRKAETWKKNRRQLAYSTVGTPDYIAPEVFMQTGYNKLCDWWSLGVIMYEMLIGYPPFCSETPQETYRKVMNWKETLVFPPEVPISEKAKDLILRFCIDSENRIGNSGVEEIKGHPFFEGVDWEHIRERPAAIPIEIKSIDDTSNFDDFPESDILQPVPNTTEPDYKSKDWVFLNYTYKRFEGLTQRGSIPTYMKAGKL
Mitogen-activated protein kinase 1, sequence (P28482 whole entry): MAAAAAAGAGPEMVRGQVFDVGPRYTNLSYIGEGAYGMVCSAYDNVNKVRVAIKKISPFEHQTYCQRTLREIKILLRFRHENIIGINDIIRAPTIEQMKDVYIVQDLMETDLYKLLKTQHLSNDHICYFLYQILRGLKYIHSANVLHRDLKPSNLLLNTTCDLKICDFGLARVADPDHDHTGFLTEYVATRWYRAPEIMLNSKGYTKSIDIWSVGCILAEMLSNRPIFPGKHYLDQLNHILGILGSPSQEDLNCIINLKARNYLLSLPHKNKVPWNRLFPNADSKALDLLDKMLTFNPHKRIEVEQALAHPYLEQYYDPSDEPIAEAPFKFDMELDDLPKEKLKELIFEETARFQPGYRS

Compound: COCC(=O)NC/C=C/c1ccc2ncnc(Nc3ccc(Oc4ccc(C)nc4)c(C)c3)c2c1 [CP-724714]
- % of control [1]: 100%

Compound: C=CC(=O)Nc1cc(-n2c(=O)ccc3cnc4ccc(-c5ccc(NS(C)(=O)=O)cc5)cc4c32)ccc1C
- % of control ([2]; at 1 µM): 100%
- % of control ([2]; at 10 µM): 95%
- % of control ([3]; at 1 µM): 2.8%
- % of control ([3]; at 10 µM): 0%

Compound: Cc1cc(F)c(C(=O)Nc2cccc(-c3nncn3C(C)C)n2)cc1-n1cnc(C2CC2)c1
- % of control [4]: 100%

Compound: Nc1cnc(N2CCc3cc(S(=O)(=O)Nc4c(F)cc(Cl)cc4F)cc(N4CCCC4=O)c32)nc1 [TP-020n]
- % of control [5]: 100%

Compound: Cc1cc([C@@H](C)Nc2ccccc2C(=O)O)c2nc(N3CCOCC3)cc(=O)n2c1 [AZD-6482]
- % of control [6]: 100%

Compound: Cc1ccc(-c2ccc3c(ccc4sc5c(c43)NC[C@@H](C)NC5=O)n2)cn1
- % of inhibition [7]: 27%

Compound: N#Cc1cccc(-c2c[nH]c3ncnc(N4CCOCC4)c23)c1
- % of inhibition [8]: 30%

Compound: CNC(=O)Nc1ccc(-c2nc(N3CC4CCC(C3)O4)c3cnn(C4CCC5(CC4)OCCO5)c3n2)cc1
- % of inhibition [9]: 3%

Compound: O[C@H]1CC[C@H](Nc2ncc3nc(Nc4c(F)cc(F)cc4F)n([C@H]4CCOC4)c3n2)CC1
- % of control [10]: 100%

Compound: CC[C@@H]1[C@H](F)C(=O)N[C@@H]1COc1nccc2cc(C(N)=O)c(OC)cc12 [ZIMLOVISERTIB]
- % of inhibition [11]: 13.8%
- % of inhibition [12]: 2.07%
